Data taken from patent publication US20110160296A1, “PREPARATION OF 6-OXA-8ALPHA-STEROID ESTROGEN ANALOGUES - A NEW GROUP OF UNNATURAL ESTROGENS AND THEIR USE IN MEDICINE” (TOPASS GMBH, priority 2007, published 2011).
One block for each molecule: values may come before it.

Experiments:
[1] = system: ovariectomised rats; experiment: Ovariectomized rat assay: body weight, uterus, femur, serum cholesterol and triglycerides; type: in vivo, rats (Sprague Dawley); details: n = 20
Protocol: (§1) The investigation of biological properties of steroids was carried out on sham operated and ovariectomized rats (Sprague Dawley) under the following conditions: compounds IV, XII, XIV and XV were given in olive oil, daily for 35 days.

[2] = system: ovariectomised rats, brain tissue; experiment: Lipid peroxidation parameters in brain tissue of ovariectomised rats (antioxidant action); type: in vivo; details: per os in olive oil, single dose of 5 mg per 100 g of body weight the day before euthanasia
Protocol: The experimental conditions: compound XVI was given per os in olive oil as a single dose of 5 mg per 100 g of body weight the day before euthanasia. […] Control group of animals were treated using olive oil without steroids.
Schiff bases contain was calculated in conventional units according to fluorometric data; triene conjugates—in conventional units—according to the spectrophotometer data under wave-length 274 nm.

[3] = system: ovariectomised rats; experiment: Effects on serum lipids and liver lipids of ovariectomised rats; type: in vivo, rats (Sprague Dawley)
Protocol: as §1

[4] = system: female mouse-hybrids F1CBAxC57BI6; experiment: Influence on spleen, antibody-forming cells and thymus of mice after single per os dose; type: in vivo; details: female mouse-hybrids F1CBAxC57BI6, per os single-dosing administration (5 mg/kg of BW)
Source text: Method is described in the article.

[5] = Table 5, 0.05 mg/kg of body weight
[6] = Table 2, 0.1 mg/kg intramuscular injection
[7] = Table 3, 0.2 mg/kg intramuscular injection
[8] = Table 3, 0.5 mg/kg intramuscular injection
[9] = Table 1, 0.5 mg/kg BW in olive oil, daily for 35 days
[10] = Table 5, 5 mg/kg of body weight in olive oil, daily for 35 days

Compound: C#C[C@]1(O)CC[C@H]2[C@@H]3CCc4cc(O)ccc4[C@H]3CC[C@@]21C [EE, 17α-Ethynylestradiol, reference compound]
Change of body weight ([1]; Table 1, 0.1 mg/kg BW): 23.0 ± 4.3 g
Serum cholesterol ([1]; Table 1, 0.1 mg/kg BW): 30.0 ± 1.7 mg/dL
Uterus weight index ([1]; Table 1, 0.1 mg/kg BW): 154.0 ± 7.8 mg/100 g BW
Change of body weight [1, 5]: 3 ± 4 g
Femur weight index (ash femur weight/wet femur weight) [1, 5]: 0.436 ± 0.004
Serum cholesterol [1, 5]: 45.5 ± 2.1 mg/dL
Serum triglycerides [1, 5]: 129.8 ± 14.5 mg/dL
Uterus weight index [1, 5]: 164 ± 11 mg/100 g BW

Compound: COc1ccc2c(c1)O[C@H](C)[C@H]1[C@@H]2CC[C@]2(C)[C@@H](OC(C)=O)CCC[C@@H]12 [Compound XVI]
Triene conjugates ([2]; control 0.209 ± 0.022): 0.152 ± 0.022 conventional units/mg of phospholipids
Klein coefficient ([2]; control 0.70 ± 0.01): 0.71 ± 0.05
Malonic dialdehyde ([2]; control 1.65 ± 0.14): 1.80 ± 0.18 nmol/mg of phospholipids
Diene conjugates ([2]; control 12.2 ± 0.7): 9.5 ± 1.0 nmol/mg of phospholipids
Schiff bases ([2]; control 129 ± 10): 96 ± 6 conventional units/mg of phospholipids

Compound: COc1ccc2c(c1)OC[C@H]1[C@@H]2CC[C@]2(C)C(=O)CCC[C@@H]12 [compound XII, 6-Oxa-D-homo-8α-estrone methyl ether]
Liver lipids Cholesterol [3, 6]: 2.69 ± 0.06 mg/g
Liver lipids Triglycerides [3, 6]: 5.21 ± 0.49 mg/g
Serum lipids Cholesterol [3, 6]: 1.68 ± 0.06 mmol/L
Serum lipids Triglycerides [3, 6]: 0.42 ± 0.05 mmol/L
Liver lipids Cholesterol [3, 7]: 2.69 ± 0.06 mg/g
Liver lipids Triglycerides [3, 7]: 3.72 ± 0.51 mg/g
Serum lipids Cholesterol [3, 7]: 1.04 ± 0.12 mmol/L
Serum lipids Triglycerides [3, 7]: 0.85 ± 0.05 mmol/L
Liver lipids Cholesterol [3, 8]: 2.31 ± 0.06 mg/g
Liver lipids Triglycerides [3, 8]: 3.17 ± 0.32 mg/g
Serum lipids Cholesterol [3, 8]: 0.85 ± 0.08 mmol/L
Serum lipids Triglycerides [3, 8]: 0.94 ± 0.05 mmol/L
Liver lipids Cholesterol ([3]; Table 4, 0.2 mg/kg per os): 3.45 ± 0.15 mg/g
Liver lipids Triglycerides ([3]; Table 4, 0.2 mg/kg per os): 7.1 ± 0.6 mg/g
Serum lipids Cholesterol ([3]; Table 4, 0.2 mg/kg per os): 0.99 ± 0.08 mmol/L
Serum lipids Triglycerides ([3]; Table 4, 0.2 mg/kg per os): 1.45 ± 0.14 mmol/L

Compound: CC(=O)Oc1ccc2c(c1)OC[C@H]1[C@@H]2CC[C@]2(C)C(=O)CC[C@@H]12 [compound IV, 6-Oxa-8α-estrone acetate]
Change of body weight [1, 9]: 45.5 ± 3.8 g
Femur weight index (ash femur weight/wet femur weigh) [1, 9]: 0.4219 ± 0.005 mg/mg
Serum cholesterol [1, 9]: 51.9 ± 1.7 mg/dL
Uterus weight index [1, 9]: 71.8 ± 3.6 mg/100 g BW

content of antibody-forming cells [4]: does not influence
mass and number of cells in spleen [4]: does not influence
mass and number of cells in the thymus [4]: does not influence
Compound: C[C@H]1Oc2cc(O)ccc2[C@H]2CC[C@]3(C)C(=O)CCC[C@H]3[C@H]21 [compound XV]
Change of body weight [1, 10]: 48 ± 4 g
Femur weight index (ash femur weight/wet femur weight) [1, 10]: 0.390 ± 0.004
Serum cholesterol [1, 10]: 52.2 ± 2.6 mg/dL
Uterus weight index [1, 10]: 33 ± 3 mg/100 g BW

Compound: COc1ccc2c(c1)O[C@H](C)[C@H]1[C@@H]2CC[C@]2(C)C(=O)CCC[C@@H]12 [compound XIV, 7β-Methyl-D-homo-6-oxa-8α-estrone methyl ether]
Change of body weight [1, 10]: 51 ± 4 g
Femur weight index (ash femur weight/wet femur weight) [1, 10]: 0.392 ± 0.004
Serum cholesterol [1, 10]: 54.5 ± 2.8 mg/dL
Serum triglycerides [1, 10]: 62.2 ± 5.2 mg/dL
Uterus weight index [1, 10]: 34 ± 2 mg/100 g BW
